Assay results: patent publication US4455315A, “N-(Difluoromethoxy substituted phenyl)-dichloromaleimides used in agricultural and horticultural fungicidal methods” (Showa Denko Kabushiki Kaisha, priority 1980, dated 1984)

Assays:
[1] = test system: potted pears (variety: Niju-seiki); assay: Test of Phytotoxicity to Pears; type: in vivo, pear; details: 75% Wettable Powders, two weeks
Excerpt: Test of Phytotoxicity to Pears
After air-drying, the potted pears are allowed to stand in a greenhouse.

TA-100 = assay: mutagenicity test (Ames test), TA-100; type: cell-based
TA-98 = assay: mutagenicity test (Ames test), TA-98; type: cell-based
Alternaria mali = assay: Apple Alternaria Leaf Spot-controlling Test; type: in vivo; details: 500 ppm, six days after inoculation
Diaporthe citri [2] = assay: Citrus Melanose-controlling Test; type: in vivo; details: 500 ppm
peroral acute toxicity = details: in vivo, po, four-week-old male mouse
Alternaria kikuchiana [3] = assay: Pear Black Spot-controlling Test; details: 500 ppm, six days after inoculation
Description: Pear Black Spot (Alternaria kikuchiana)-controlling Test
(§1) The resulting solution is sprayed on unfolded leaves of potted young pears (variety: Niju-seiki) in an amount corresponding to 600 l/10a per pot. After air-drying, the unfolded leaves are inoculated with Alternaria kikuchiana, by spraying a suspension of conidia thereof containing 30 conidia per microscopic field (magnification: X200).
(§2) After inoculation, the potted young pears are allowed to stand at a temperature of 27° C. in a moist room for one day and then transferred to a greenhouse. Six days after inoculation, the leaf area infested by pear black spot, i.e., the area of pathologic spots on a leaf is examined on 5 unfolded leaves per pot and an average infestation rate is then calculated.

[4] = test system: potted young oranges (variety: Unshu); assay: Phytotoxicity of treating compound, residual activity test; details: 1000 ppm, 23 mm/hr of rain
[5] = test system: potted apples (variety: Star King); assay: Phytotoxicity of treating compound, Apple Scab test; details: 500 ppm
Venturia inaequalis = assay: Apple Scab-controlling Test; type: in vivo; details: 500 ppm
[6] = test system: potted young pears (variety: Niju-seiki); assay: Phytotoxicity of treating compound, Pear Black Spot test; details: 500 ppm, damaged area on leaves
Description: as §1, §2
*The phytotoxicity of the treating compound is evaluated according to the

[7] = test system: potted potatoes (variety: Chippewa); details: 500 ppm
Alternaria kikuchiana [8] = assay: Spore-germination Inhibiting Test; type: cell-based; details: 10 ppm, 27° C., 20 hours
Description: Spore-germination Inhibiting Test for Alternaria kukuchiana An apricot medium is inoculated with Alternaria kikuchiana and incubated at a temperature of 27° C. for 7-10 days to form conidia on the medium. […] 0.02 Ml of the prepared spore suspension containing the compound according to the present invention is dropped on a slide glass and incubated at a temperature of 27° C. under moist conditions for 20 hours. Thereafter, whether or not the spores germinate is examined under a microscope and the spore-germination rate is then calculated.

Elsinoe fawcetti = assay: Citrus Scab-controlling Test; details: 250 ppm
Description: (§3) The resulting solution is sprayed, in an amount corresponding to 600 l/10a per pot, on potted young oranges (variety: Unshu) immediately after fresh leaves are unfolded. After one day, the potted young oranges are inoculated with Elsinoe fawcetti, by spraying a suspension of crushed hyphae thereof containing 50 crushed hyphae per microscopic field (magnification: X100). The suspension is prepared by culturing Elsinoe fawcetti on potato medium at a temperature of 25° C. for 30 days to form hyphae and suspending it in sterilized water.
(§4) After inoculation, the potted young oranges are allowed to stand at a temperature of 25° C. in a moist room for two days and then transferred to a greenhouse. Twenty-three days after inoculation, the leaf infested by citrus scab is examined, i.e., number of pathologic spots on a leaf is examined and the numbers of leaves infested by cirtrus scab are counted. Then, an infestation rate is calculated according to the following equation:
Infestation Rate=(Σnf/3N)×100
wherein n is the number of the infested leaves, f is an infestation index and N is the total number of the examined leaves. The infestation index is as follows.
For comparison, the above test is also carried out using a reference compound (benomyl) and plain water.

Diaporthe citri [9] = assay: Test of Residual Activity against Citrus Melanose; type: in vivo; details: 1000 ppm, 23 mm/hr of rain
[10] = test system: potted apples (variety: Star King); assay: Test of Phytotoxicity to Apples; details: 75% Wettable Powders, dilution × 750, 600 l/10 a, two weeks
Description: The resulting solution of wettable powders is sprayed, in an amount corresponding to 600 l/10a per pot, on potted apples (variety: Star King) immediately after fresh leaves are unfolded. After air-drying, the potted apples are allowed to stand in a greenhouse. Two weeks after the spray treatment, the phytotoxicity, of the compound according to the present invention, to the potted apples is examined.
For comparison, the above test is also carried out using a reference compound (fluoroimide) and plain water.

[11] = test system: Pseudoperonospora cubensis; assay: Cucumber Downy Mildew-controlling Test; type: in vivo; details: 1000 ppm, five days after inoculation
Excerpt: Cucumber Downy Mildew (Pseudoperonospora cubensis)-controlling Test […] After one day, the cucumbers are inoculated with Pseudoperonospora cubensis, by spraying a suspension thereof containing 30 spores per microscopic field (magnification: […]), which are collected from the leaves infested by cucumber downy mildew. […] In this test, one cucumber is planted in each pot and three pots are used.

Phytophthora infestans = type: in vivo; details: 500 ppm
[12] = test system: potted young oranges (variety: Unshu); assay: Phytotoxicity of treating compound, Citrus Melanose test; details: 500 ppm
[13] = test system: potted young oranges (variety: Unshu); assay: Phytotoxicity of treating compound, Citrus Scab test; details: 250 ppm
Description: as §3, §4

ichthyotoxicity = details: killifish, in vivo; read-out: Tlm48
[14] = index 3 = 51-100% infested area

Compound: O=C1C(Cl)=C(Cl)C(=O)N1c1ccc(OC(F)F)cc1 [compound 3, 2,3-dichloro-N-(p-difluoromethoxyphenyl)maleimide]
- Phytotoxicity of Treating Compound ([1]; dilution × 500, 600 l/10 a): - (0%)
- Phytotoxicity of Treating Compound ([1]; dilution × 750, 600 l/10 a): - (0%)
- Ames test TA-100 (TA-100): negative
- Ames test TA-98 (TA-98): negative
- Average Infestation Rate (%) (Based on infested area) (Alternaria mali): 0%
- Infested Leaves (%) (Diaporthe citri [2]; 24 days after inoculation): 0%
- Infestation Rate (Diaporthe citri [2]; 24 days, (Σnf/4N)×100): 0
- Number of Leaves Showing Infestation Index 0 (Diaporthe citri [2]; index 0 = 0-25% infested area, 24 days): 271 leaves
- Number of Leaves Showing Infestation Index 1 (Diaporthe citri [2]; index 1 = 26-50% infested area, 24 days): 0 leaves
- Number of Leaves Showing Infestation Index 2 (Diaporthe citri [2]; index 2 = 51-75% infested area, 24 days): 0 leaves
- Number of Leaves Showing Infestation Index 3 (Diaporthe citri [2]; index 3 = 76-90% infested area, 24 days): 0 leaves
- Number of Leaves Showing Infestation Index 4 (Diaporthe citri [2]; index 4 = 91-100% infested area, 24 days): 0 leaves
- LD50 (peroral acute toxicity): > 300 mg/kg
- Average Infestation Rate (%) (Based on infested area) (Alternaria kikuchiana [3]): 2%
- Phytotoxicity of Treating Compound [4]: - (0%)
- Phytotoxicity of Treating Compound [5]: - (0%)
- Infested Leaves (%) (Venturia inaequalis; seven days after inoculation): 0%
- Infestation Rate (Venturia inaequalis; seven days, (Σnf/3N)×100): 0
- Number of Leaves Showing Each Infestation Index: 0 (Venturia inaequalis; index 0 = 0% infested area): 25 leaves
- Number of Leaves Showing Each Infestation Index: 1 (Venturia inaequalis; index 1 = 1-25% infested area): 0 leaves
- Number of Leaves Showing Each Infestation Index: 2 (Venturia inaequalis; index 2 = 26-50% infested area): 0 leaves
- Number of Leaves Showing Each Infestation Index: 3 (Venturia inaequalis; [14]): 0 leaves
- Phytotoxicity of Treating Compound [6]: - (0%)
- Phytotoxicity of Treating Compound [7]: - (0%)
- Spore-germination Rate (%) (Alternaria kikuchiana [8]): 0%
- Infested Leaves (%) (Elsinoe fawcetti; 23 days after inoculation): 0.6%
- Infestation Rate (Elsinoe fawcetti; 23 days, (Σnf/3N)×100): 0.2
- Number of Leaves Showing Each Infestation Index: 0 (Elsinoe fawcetti; index 0 = 0 spots per leaf): 311 leaves
- Number of Leaves Showing Each Infestation Index: 1 (Elsinoe fawcetti; index 1 = 1-3 spots per leaf): 2 leaves
- Number of Leaves Showing Each Infestation Index: 2 (Elsinoe fawcetti; index 2 = 4-10 spots per leaf): 0 leaves
- Number of Leaves Showing Each Infestation Index: 3 (Elsinoe fawcetti; index 3 = ≥11 spots per leaf): 0 leaves
- Infested Leaves (%) (Diaporthe citri [9]; 24 days after inoculation): 0%
- Infestation Rate (Diaporthe citri [9]; 24 days, (Σnf/4N)×100): 0
- Number of Leaves Showing Each Infestation Index: 0 (Diaporthe citri [9]; index 0 = 0-25% infested area): 187 leaves
- Number of Leaves Showing Each Infestation Index: 1 (Diaporthe citri [9]; index 1 = 26-50% infested area): 0 leaves
- Number of Leaves Showing Each Infestation Index: 2 (Diaporthe citri [9]; index 2 = 51-75% infested area): 0 leaves
- Number of Leaves Showing Each Infestation Index: 3 (Diaporthe citri [9]; index 3 = 76-90% infested area): 0 leaves
- Number of Leaves Showing Each Infestation Index: 4 (Diaporthe citri [9]; index 4 = 91-100% infested area): 0 leaves
- Phytotoxicity of Treating Compound [10]: - (0%)
- Average Infestation Rate (%) (Based on infested area) [11]: 0%
- Infested Leaves (%) (Phytophthora infestans; six days after inoculation): 0%
- Infestation Rate (Phytophthora infestans; six days, (Σnf/3N)×100): 0
- Number of Leaves Showing Each Infestation Index: 0 (Phytophthora infestans; index 0 = 0% infested area): 20 leaves
- Number of Leaves Showing Each Infestation Index: 1 (Phytophthora infestans; index 1 = 1-25% infested area): 0 leaves
- Number of Leaves Showing Each Infestation Index: 2 (Phytophthora infestans; index 2 = 26-50% infested area): 0 leaves
- Number of Leaves Showing Each Infestation Index: 3 (Phytophthora infestans; [14]): 0 leaves
- Phytotoxicity of Treating Compound [12]: - (0%)
- Phytotoxicity of Treating Compound [13]: - (0%)
- LC50 at 48 h (ichthyotoxicity): > 10 µg/mL
